Results from the supplement of paper PMC8671470.

Each compound was assayed on HL-60 (assay: cell viability (% survival relative to DMSO control); higher = less cytotoxic). Conditions: drug1 concentration 100 nM; drug2 concentration 5000 nM; 72 h.
Method: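 8x8 drug-combination matrices (0-5000 nM; rosiglitazone and lestaurtinib 0-1000 nM) were run in HL-60 cells for 72 h with a CellTiter-Glo read-out. Survival is normalised to DMSO and 10 µM bortezomib and clipped at 100%. Bliss synergy was analysed in SynergyFinder.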
Compound `O=C(C1CC1)N1CC[C@@H](C=C2NNC(=O)N2c2ccc(-c3ccc4occc4c3)cc2)C1` + O=C(c1c2ccccc2cc2ccccc12)N1CCC(N2CCC[C@@H](C(=O)N3CCOCC3)C2)CC1 [CP-640186] has a cell viability of 74.6%.
With `CC(C)c1onc(-c2c(Cl)cccc2Cl)c1COc1ccc(/C=C/c2cccc(C(=O)O)c2)c(Cl)c1` [GW4064] + Cn1cc(-c2ccncc2)c(-c2ccc(OCc3ccc4ccccc4n3)cc2)n1 [PF-02545920] the cell viability was > 100%.

Same assay, conditions: drug1 concentration 500 nM; drug2 concentration 5 nM; 72 h
Compound `O=C(C1CC1)N1CC[C@@H](C=C2NNC(=O)N2c2ccc(-c3ccc4occc4c3)cc2)C1` + CS(=O)(=O)N1CCN(Cc2cc3nc(-c4cccc5[nH]ncc45)nc(N4CCOCC4)c3s2)CC1 [Pictilisib] has a cell viability of 51.3%.
Compound `O=C(C1CC1)N1CC[C@@H](C=C2NNC(=O)N2c2ccc(-c3ccc4occc4c3)cc2)C1` + C[C@H](NC(=O)c1sccc1OCc1ccc(Cl)cc1)c1ccccc1 [as1949490] has a cell viability of 60.7%.
For `O=C(C1CC1)N1CC[C@@H](C=C2NNC(=O)N2c2ccc(-c3ccc4occc4c3)cc2)C1` + O=C(c1c2ccccc2cc2ccccc12)N1CCC(N2CCC[C@@H](C(=O)N3CCOCC3)C2)CC1 [CP-640186], the cell viability was 60%.
For `CC(C)c1onc(-c2c(Cl)cccc2Cl)c1COc1ccc(/C=C/c2cccc(C(=O)O)c2)c(Cl)c1` [GW4064] + Cn1cc(-c2ccncc2)c(-c2ccc(OCc3ccc4ccccc4n3)cc2)n1 [PF-02545920], the cell viability was > 100%.

Same assay, conditions: drug1 concentration 500 nM; drug2 concentration 10 nM; 72 h
In the case of `O=C(C1CC1)N1CC[C@@H](C=C2NNC(=O)N2c2ccc(-c3ccc4occc4c3)cc2)C1` + CS(=O)(=O)N1CCN(Cc2cc3nc(-c4cccc5[nH]ncc45)nc(N4CCOCC4)c3s2)CC1 [Pictilisib], the cell viability is reported as 56.7%.
`O=C(C1CC1)N1CC[C@@H](C=C2NNC(=O)N2c2ccc(-c3ccc4occc4c3)cc2)C1` + C[C@H](NC(=O)c1sccc1OCc1ccc(Cl)cc1)c1ccccc1 [as1949490] gave a cell viability of 58.1%.
`O=C(C1CC1)N1CC[C@@H](C=C2NNC(=O)N2c2ccc(-c3ccc4occc4c3)cc2)C1` + O=C(c1c2ccccc2cc2ccccc12)N1CCC(N2CCC[C@@H](C(=O)N3CCOCC3)C2)CC1 [CP-640186] showed a cell viability of 91.2%.
In the case of `CC(C)c1onc(-c2c(Cl)cccc2Cl)c1COc1ccc(/C=C/c2cccc(C(=O)O)c2)c(Cl)c1` [GW4064] + Cn1cc(-c2ccncc2)c(-c2ccc(OCc3ccc4ccccc4n3)cc2)n1 [PF-02545920], the cell viability is reported as 97%.

Same assay, conditions: drug1 concentration 500 nM; drug2 concentration 50 nM; 72 h
In the case of `O=C(C1CC1)N1CC[C@@H](C=C2NNC(=O)N2c2ccc(-c3ccc4occc4c3)cc2)C1` + CS(=O)(=O)N1CCN(Cc2cc3nc(-c4cccc5[nH]ncc45)nc(N4CCOCC4)c3s2)CC1 [Pictilisib], the cell viability is reported as 52.8%.
With `O=C(C1CC1)N1CC[C@@H](C=C2NNC(=O)N2c2ccc(-c3ccc4occc4c3)cc2)C1` + C[C@H](NC(=O)c1sccc1OCc1ccc(Cl)cc1)c1ccccc1 [as1949490] the cell viability was 59.3%.
Work on `O=C(C1CC1)N1CC[C@@H](C=C2NNC(=O)N2c2ccc(-c3ccc4occc4c3)cc2)C1` + O=C(c1c2ccccc2cc2ccccc12)N1CCC(N2CCC[C@@H](C(=O)N3CCOCC3)C2)CC1 [CP-640186] yielded a cell viability of 81.8%.
With `CC(C)c1onc(-c2c(Cl)cccc2Cl)c1COc1ccc(/C=C/c2cccc(C(=O)O)c2)c(Cl)c1` [GW4064] + Cn1cc(-c2ccncc2)c(-c2ccc(OCc3ccc4ccccc4n3)cc2)n1 [PF-02545920] the cell viability was > 100%.

Same assay, conditions: drug1 concentration 500 nM; drug2 concentration 100 nM; 72 h
`O=C(C1CC1)N1CC[C@@H](C=C2NNC(=O)N2c2ccc(-c3ccc4occc4c3)cc2)C1` + CS(=O)(=O)N1CCN(Cc2cc3nc(-c4cccc5[nH]ncc45)nc(N4CCOCC4)c3s2)CC1 [Pictilisib] was tested, and the cell viability was 45.6%.
`O=C(C1CC1)N1CC[C@@H](C=C2NNC(=O)N2c2ccc(-c3ccc4occc4c3)cc2)C1` + C[C@H](NC(=O)c1sccc1OCc1ccc(Cl)cc1)c1ccccc1 [as1949490] gave a cell viability of 56.1%.
`O=C(C1CC1)N1CC[C@@H](C=C2NNC(=O)N2c2ccc(-c3ccc4occc4c3)cc2)C1` + O=C(c1c2ccccc2cc2ccccc12)N1CCC(N2CCC[C@@H](C(=O)N3CCOCC3)C2)CC1 [CP-640186] gave a cell viability of 74.4%.
For `CC(C)c1onc(-c2c(Cl)cccc2Cl)c1COc1ccc(/C=C/c2cccc(C(=O)O)c2)c(Cl)c1` [GW4064] + Cn1cc(-c2ccncc2)c(-c2ccc(OCc3ccc4ccccc4n3)cc2)n1 [PF-02545920], the cell viability was > 100%.

Same assay, conditions: drug1 concentration 500 nM; drug2 concentration 500 nM; 72 h
`O=C(C1CC1)N1CC[C@@H](C=C2NNC(=O)N2c2ccc(-c3ccc4occc4c3)cc2)C1` + CS(=O)(=O)N1CCN(Cc2cc3nc(-c4cccc5[nH]ncc45)nc(N4CCOCC4)c3s2)CC1 [Pictilisib] showed a cell viability of 34.5%.
Compound `O=C(C1CC1)N1CC[C@@H](C=C2NNC(=O)N2c2ccc(-c3ccc4occc4c3)cc2)C1` + C[C@H](NC(=O)c1sccc1OCc1ccc(Cl)cc1)c1ccccc1 [as1949490] has a cell viability of 46.3%.
`O=C(C1CC1)N1CC[C@@H](C=C2NNC(=O)N2c2ccc(-c3ccc4occc4c3)cc2)C1` + O=C(c1c2ccccc2cc2ccccc12)N1CCC(N2CCC[C@@H](C(=O)N3CCOCC3)C2)CC1 [CP-640186] was tested, and the cell viability was 70.5%.
For `CC(C)c1onc(-c2c(Cl)cccc2Cl)c1COc1ccc(/C=C/c2cccc(C(=O)O)c2)c(Cl)c1` [GW4064] + Cn1cc(-c2ccncc2)c(-c2ccc(OCc3ccc4ccccc4n3)cc2)n1 [PF-02545920], the cell viability was > 100%.

Same assay, conditions: drug1 concentration 500 nM; drug2 concentration 1000 nM; 72 h
With `O=C(C1CC1)N1CC[C@@H](C=C2NNC(=O)N2c2ccc(-c3ccc4occc4c3)cc2)C1` + CS(=O)(=O)N1CCN(Cc2cc3nc(-c4cccc5[nH]ncc45)nc(N4CCOCC4)c3s2)CC1 [Pictilisib] the cell viability was 48.4%.
With `O=C(C1CC1)N1CC[C@@H](C=C2NNC(=O)N2c2ccc(-c3ccc4occc4c3)cc2)C1` + C[C@H](NC(=O)c1sccc1OCc1ccc(Cl)cc1)c1ccccc1 [as1949490] the cell viability was 43.6%.
For `O=C(C1CC1)N1CC[C@@H](C=C2NNC(=O)N2c2ccc(-c3ccc4occc4c3)cc2)C1` + O=C(c1c2ccccc2cc2ccccc12)N1CCC(N2CCC[C@@H](C(=O)N3CCOCC3)C2)CC1 [CP-640186], the cell viability was 61.5%.
For `CC(C)c1onc(-c2c(Cl)cccc2Cl)c1COc1ccc(/C=C/c2cccc(C(=O)O)c2)c(Cl)c1` [GW4064] + Cn1cc(-c2ccncc2)c(-c2ccc(OCc3ccc4ccccc4n3)cc2)n1 [PF-02545920], the cell viability was > 100%.

Same assay, conditions: drug1 concentration 500 nM; drug2 concentration 5000 nM; 72 h
For `O=C(C1CC1)N1CC[C@@H](C=C2NNC(=O)N2c2ccc(-c3ccc4occc4c3)cc2)C1` + CS(=O)(=O)N1CCN(Cc2cc3nc(-c4cccc5[nH]ncc45)nc(N4CCOCC4)c3s2)CC1 [Pictilisib], the cell viability was 38.6%.
Compound `O=C(C1CC1)N1CC[C@@H](C=C2NNC(=O)N2c2ccc(-c3ccc4occc4c3)cc2)C1` + C[C@H](NC(=O)c1sccc1OCc1ccc(Cl)cc1)c1ccccc1 [as1949490] has a cell viability of 44.8%.
Work on `O=C(C1CC1)N1CC[C@@H](C=C2NNC(=O)N2c2ccc(-c3ccc4occc4c3)cc2)C1` + O=C(c1c2ccccc2cc2ccccc12)N1CCC(N2CCC[C@@H](C(=O)N3CCOCC3)C2)CC1 [CP-640186] yielded a cell viability of 52.4%.
For `CC(C)c1onc(-c2c(Cl)cccc2Cl)c1COc1ccc(/C=C/c2cccc(C(=O)O)c2)c(Cl)c1` [GW4064] + Cn1cc(-c2ccncc2)c(-c2ccc(OCc3ccc4ccccc4n3)cc2)n1 [PF-02545920], the cell viability was > 100%.

Same assay, conditions: drug1 concentration 1000 nM; drug2 concentration 5 nM; 72 h
For `O=C(C1CC1)N1CC[C@@H](C=C2NNC(=O)N2c2ccc(-c3ccc4occc4c3)cc2)C1` + CS(=O)(=O)N1CCN(Cc2cc3nc(-c4cccc5[nH]ncc45)nc(N4CCOCC4)c3s2)CC1 [Pictilisib], the cell viability was 56.3%.
`O=C(C1CC1)N1CC[C@@H](C=C2NNC(=O)N2c2ccc(-c3ccc4occc4c3)cc2)C1` + C[C@H](NC(=O)c1sccc1OCc1ccc(Cl)cc1)c1ccccc1 [as1949490] was tested, and the cell viability was 60.8%.
`O=C(C1CC1)N1CC[C@@H](C=C2NNC(=O)N2c2ccc(-c3ccc4occc4c3)cc2)C1` + O=C(c1c2ccccc2cc2ccccc12)N1CCC(N2CCC[C@@H](C(=O)N3CCOCC3)C2)CC1 [CP-640186] showed a cell viability of 71.7%.
With `CC(C)c1onc(-c2c(Cl)cccc2Cl)c1COc1ccc(/C=C/c2cccc(C(=O)O)c2)c(Cl)c1` [GW4064] + Cn1cc(-c2ccncc2)c(-c2ccc(OCc3ccc4ccccc4n3)cc2)n1 [PF-02545920] the cell viability was > 100%.

Same assay, conditions: drug1 concentration 1000 nM; drug2 concentration 10 nM; 72 h
In the case of `O=C(C1CC1)N1CC[C@@H](C=C2NNC(=O)N2c2ccc(-c3ccc4occc4c3)cc2)C1` + CS(=O)(=O)N1CCN(Cc2cc3nc(-c4cccc5[nH]ncc45)nc(N4CCOCC4)c3s2)CC1 [Pictilisib], the cell viability is reported as 55.8%.
`O=C(C1CC1)N1CC[C@@H](C=C2NNC(=O)N2c2ccc(-c3ccc4occc4c3)cc2)C1` + C[C@H](NC(=O)c1sccc1OCc1ccc(Cl)cc1)c1ccccc1 [as1949490] gave a cell viability of 58.4%.
`O=C(C1CC1)N1CC[C@@H](C=C2NNC(=O)N2c2ccc(-c3ccc4occc4c3)cc2)C1` + O=C(c1c2ccccc2cc2ccccc12)N1CCC(N2CCC[C@@H](C(=O)N3CCOCC3)C2)CC1 [CP-640186] gave a cell viability of 72%.
